Test results from PubChem BioAssay (NCI).
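Where inhibition never reached the appropriate level, the endpoint shown equals the highest concentration tested. Otherwise, values were interpolated linearly from a five-concentration, 48-hour dose response in 96-well plates. At the GI50, growth is halved. Definition used: TGI = concentration required for complete inhibition of growth.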

How the values were obtained:
Test in all cases: DTP human tumour cell line panel, 48 h
[1] = system: MOLT-4 leukemia
[2] = system: UACC-257 melanoma
[3] = system: NCI/ADR-RES ovarian
[4] = system: SK-MEL-2 melanoma
[5] = system: HOP-92 NSCLC
[6] = system: HL-60(TB) leukemia
[7] = system: HCT-116 colon
[8] = system: CCRF-CEM leukemia
[9] = system: OVCAR-3 ovarian
[10] = system: SK-OV-3 ovarian
[11] = system: CAKI-1 renal
[12] = system: SR leukemia
[13] = system: MDA-MB-435
[14] = system: 786-0 renal
[15] = system: BT-549 breast
[16] = system: NCI-H522 lung
[17] = system: NCI-H460 lung
[18] = system: K-562 leukemia
[19] = system: MALME-3M melanoma
[20] = system: NCI-H23 lung
[21] = system: HT29 colon
[22] = system: EKVX NSCLC
[23] = system: SF-539 CNS
[24] = system: OVCAR-5 ovarian
[25] = system: DU-145 prostate
[26] = system: UACC-62 melanoma
[27] = system: SF-268 CNS
[28] = system: SN12C renal
[29] = system: SK-MEL-28 melanoma
[30] = system: MCF7 breast
[31] = system: KM12 colon
[32] = system: U251 CNS
[33] = system: OVCAR-8 ovarian
[34] = system: SNB-75 CNS
[35] = system: HS 578T breast
[36] = system: IGROV1 ovarian
[37] = system: NCI-H226 lung
[38] = system: MDA-MB-468 breast
[39] = system: SK-MEL-5 melanoma
[40] = system: SW-620 colon
[41] = system: MDA-MB-231 breast
[42] = system: RPMI-8226 leukemia
[43] = system: ACHN renal
[44] = system: LOX IMVI melanoma
[45] = system: A498 renal
[46] = system: SNB-19 CNS
[47] = system: M14 melanoma
[48] = system: HCC-2998 colon
[49] = system: A549 NSCLC
[50] = system: OVCAR-4 ovarian
[51] = system: SF-295 CNS
[52] = system: HCT-15 colon
[53] = system: RXF 393 renal
[54] = system: HOP-62 NSCLC
[55] = system: T-47D breast
[56] = system: TK-10 renal
[57] = system: UO-31 renal
[58] = system: COLO 205 colon
[59] = system: PC-3 prostate

SMILES: CCCn1cc(-c2nc(Nc3ccc(C(=O)NCCCCNc4cccc5c4C(=O)N(C4CCC(=O)NC4=O)C5=O)cc3)nc3[nH]ccc23)cn1 (stereo not drawn)
- GI50 [1]: < 0.01 µM
- GI50 [2]: > 100 µM
- TGI [2]: > 100 µM
- GI50 [3]: > 100 µM
- TGI [3]: > 100 µM
- GI50 [4]: 53.6 nM
- TGI [4]: > 100 µM
- GI50 [5]: < 0.01 µM
- TGI [5]: < 0.01 µM
- GI50 [6]: < 0.01 µM
- TGI [6]: 0.516 µM
- GI50 [7]: 27.4 µM
- TGI [7]: > 100 µM
- GI50 [8]: < 0.01 µM
- TGI [8]: < 0.01 µM
- GI50 [9]: 0.424 µM
- TGI [9]: > 100 µM
- GI50 [10]: 425 nM
- TGI [10]: > 100 µM
- GI50 [11]: 0.19 µM
- TGI [11]: > 100 µM
- GI50 [12]: 0.319 µM
- TGI [12]: > 100 µM
- GI50 [13]: 0.0686 µM
- TGI [13]: > 100 µM
- GI50 [14]: 136 nM
- TGI [14]: > 100 µM
- GI50 [15]: < 0.01 µM
- TGI [15]: < 0.01 µM
- GI50 [16]: > 100 µM
- TGI [16]: > 100 µM
- GI50 [17]: > 100 µM
- TGI [17]: > 100 µM
- GI50 [18]: 0.0368 µM
- TGI [18]: > 100 µM
- GI50 [19]: < 0.01 µM
- TGI [19]: < 0.01 µM
- GI50 [20]: 18.6 µM
- TGI [20]: > 100 µM
- GI50 [21]: 0.166 µM
- TGI [21]: > 100 µM
- TGI [22]: > 100 µM
- GI50 [23]: 0.0676 µM
- TGI [23]: > 100 µM
- GI50 [24]: 243 nM
- TGI [24]: > 100 µM
- GI50 [25]: > 100 µM
- TGI [25]: > 100 µM
- GI50 [26]: > 100 µM
- TGI [26]: > 100 µM
- GI50 [27]: 0.0257 µM
- TGI [27]: > 100 µM
- GI50 [28]: 0.0166 µM
- TGI [28]: > 100 µM
- GI50 [29]: 0.123 µM
- TGI [29]: > 100 µM
- GI50 [30]: 0.0339 µM
- TGI [30]: > 100 µM
- GI50 [31]: 0.0374 µM
- TGI [31]: > 100 µM
- GI50 [32]: 589 nM
- TGI [32]: > 100 µM
- GI50 [33]: < 0.01 µM
- TGI [33]: > 100 µM
- GI50 [34]: < 0.01 µM
- TGI [34]: 2060 nM
- GI50 [35]: < 0.01 µM
- TGI [35]: > 100 µM
- GI50 [36]: 0.0117 µM
- TGI [36]: > 100 µM
- GI50 [37]: 0.0319 µM
- TGI [37]: > 100 µM
- GI50 [38]: < 0.01 µM
- TGI [38]: < 0.01 µM
- GI50 [39]: 0.03 µM
- TGI [39]: 188 nM
- GI50 [40]: < 0.01 µM
- TGI [40]: > 100 µM
- GI50 [41]: < 0.01 µM
- TGI [41]: < 0.01 µM
- GI50 [42]: 0.157 µM
- TGI [42]: > 100 µM
- GI50 [43]: > 100 µM
- TGI [43]: > 100 µM
- GI50 [44]: > 100 µM
- TGI [44]: > 100 µM
- GI50 [45]: 157 nM
- TGI [45]: > 100 µM
- GI50 [46]: < 0.0124 µM
- TGI [46]: > 100 µM
- GI50 [47]: 0.0817 µM
- TGI [47]: > 100 µM
- GI50 [48]: < 0.01 µM
- TGI [48]: > 100 µM
- GI50 [49]: 0.119 µM
- TGI [49]: > 100 µM
- GI50 [50]: 0.0354 µM
- TGI [50]: > 100 µM
- GI50 [51]: 0.209 µM
- TGI [51]: > 100 µM

SMILES: N#C/C(=C1/C(=O)Nc2ccccc21)c1nnc(NC(=O)c2ccc(-n3c(=O)[nH]c4ccccc4c3=O)cc2)s1
- GI50 [1]: 20.7 µM
- TGI [1]: 60.9 µM
- GI50 [2]: 46.2 µM
- TGI [2]: > 100 µM
- GI50 [3]: 33.8 µM
- TGI [3]: > 100 µM
- GI50 [4]: > 100000 nM
- TGI [4]: > 100 µM
- GI50 [5]: 33.8 µM
- TGI [5]: > 100 µM
- GI50 [6]: 13.6 µM
- TGI [6]: 45.4 µM
- GI50 [7]: 32.6 µM
- TGI [7]: > 100 µM
- GI50 [8]: 22.2 µM
- TGI [8]: 64.5 µM
- GI50 [52]: 27.3 µM
- TGI [52]: > 100 µM
- GI50 [9]: 10.9 µM
- TGI [9]: 71.6 µM
- GI50 [53]: 14.5 µM
- TGI [53]: > 100 µM
- GI50 [10]: > 100000 nM
- TGI [10]: > 100 µM
- GI50 [11]: 39 µM
- TGI [11]: > 100 µM
- GI50 [12]: 33.1 µM
- TGI [12]: > 100 µM
- GI50 [13]: 17.2 µM
- TGI [13]: 35.8 µM
- GI50 [14]: > 100000 nM
- TGI [14]: > 100 µM
- GI50 [15]: 39.4 µM
- TGI [15]: > 100 µM
- GI50 [16]: 13.2 µM
- TGI [16]: 71.7 µM
- GI50 [17]: 26 µM
- TGI [17]: > 100 µM
- GI50 [18]: 26.1 µM
- TGI [18]: > 100 µM
- GI50 [19]: 45.6 µM
- TGI [19]: > 100 µM
- GI50 [20]: 45.2 µM
- TGI [20]: > 100 µM
- GI50 [54]: > 100 µM
- TGI [54]: > 100 µM
- GI50 [21]: 31.7 µM
- TGI [21]: > 100 µM
- GI50 [22]: 46.1 µM
- TGI [22]: > 100 µM
- GI50 [23]: 48.3 µM
- TGI [23]: > 100 µM
- GI50 [55]: 11.2 µM
- TGI [55]: > 100 µM
- GI50 [24]: > 100000 nM
- TGI [24]: > 100 µM
- GI50 [25]: 53.6 µM
- TGI [25]: > 100 µM
- GI50 [26]: 47.4 µM
- TGI [26]: > 100 µM
- GI50 [27]: 34.9 µM
- TGI [27]: > 100 µM
- GI50 [28]: 58.3 µM
- TGI [28]: > 100 µM
- GI50 [56]: > 100 µM
- TGI [56]: > 100 µM
- GI50 [29]: 65.9 µM
- TGI [29]: > 100 µM
- GI50 [30]: 18.3 µM
- TGI [30]: > 100 µM
- GI50 [31]: 33.4 µM
- TGI [31]: > 100 µM
- GI50 [32]: > 100000 nM
- TGI [32]: > 100 µM
- GI50 [33]: 67.6 µM
- TGI [33]: > 100 µM
- GI50 [57]: 31.8 µM
- TGI [57]: > 100 µM
- GI50 [34]: 16.2 µM
- TGI [34]: > 100000 nM
- GI50 [35]: 27.4 µM
- TGI [35]: > 100 µM
- GI50 [36]: 40.5 µM
- TGI [36]: > 100 µM
- GI50 [37]: 17.6 µM
- TGI [37]: > 100 µM
- GI50 [38]: 11 µM
- TGI [38]: 56.1 µM
- GI50 [39]: 32.2 µM
- TGI [39]: > 100000 nM
- GI50 [40]: 29.5 µM
- TGI [40]: > 100 µM
- GI50 [41]: 38.4 µM
- TGI [41]: > 100 µM
- GI50 [42]: 27.1 µM
- TGI [42]: > 100 µM
- GI50 [58]: 22.1 µM
- TGI [58]: 79.8 µM
- GI50 [43]: 53.8 µM
- TGI [43]: > 100 µM
- GI50 [44]: 21.6 µM
- TGI [44]: > 100 µM
- GI50 [45]: > 100000 nM
- TGI [45]: > 100 µM
- GI50 [46]: > 100 µM
- TGI [46]: > 100 µM
- GI50 [47]: 41.2 µM
- TGI [47]: > 100 µM
- GI50 [59]: 30.3 µM
- TGI [59]: > 100 µM
- GI50 [48]: 39.8 µM
- TGI [48]: > 100 µM
- GI50 [49]: 54.7 µM
- TGI [49]: > 100 µM
- GI50 [50]: 23.1 µM
- TGI [50]: > 100 µM
- GI50 [51]: 45.9 µM
- TGI [51]: > 100 µM
